We go through ten molecules from article PMC3409651 (Journal of agricultural and food chemistry, 2012).

For data set [1], the system named is Sult in FVB mouse liver S9 fraction. The data set can be described thus: Sult activity measurements. Type of data set: in vitro ADME.
Data set [2] can be described thus: Chemical stability of the tested compounds in potassium phosphate buffer. The following applies: 50 mM potassium phosphate buffer (pH 7.4) at 37°C with 0.1% vitamin C. Type of data set: physicochemical.
The test system of data set [3] is Ugt in FVB mouse liver S9 fraction. The settings on record: male, 10 µM, pH 7.4.
A further data set relates to Sult and Ugt. The data set can be described thus: Sult-Ugt co-reaction system. Type of data set: in vitro ADME. The following applies: male, FVB, mouse, liver S9 fraction.
For the next data set, the system named is Ugt. The data set can be described thus: Ugt activity measurements. The settings on record: male, FVB, mouse, liver S9 fraction, pH 7.4.
In the next data set the test system is Sult. Kind of data set: Sult activity measurements. Type of data set: in vitro ADME, mouse. The following applies: male, FVB, mouse, liver S9 fraction, pH 7.4.
For data set [4], the system named is SULTs in human liver and duodenum S9 fractions. The settings on record: cited from earlier work.
The mark [5] stands for this setting: 10 µM substrate, Sult single reaction, FVB mice liver S9 fraction, n=3.

As to `O=c1cc(-c2ccccc2O)oc2ccccc12` [2’-HF, 2’-hydroxyflavone], the sulfation rate in data set [1] (setting [5]) is 0.0719 ± 0.0030 nmol per min per mg of protein. The “time stable in buffer (chemical stability)” value (from here on “time stable in buffer”) in data set [2] was 30 to 90 min.
Take `O=c1c(O)c(-c2ccc(O)cc2)oc2ccccc12` [3,4’-diHF, 3,4’-dihydroxyflavone]: the “time stable in buffer” value in data set [2] fell in the range of 30 to 90 min.
Turning to `O=c1c(O)c(-c2ccccc2)oc2ccccc12` [3-HF, 3-hydroxyflavone], in data set [1] (setting [5]), the sulfation rate is given as 0.00 ± 0.00 nmol per min per mg of protein. Further, the “sulfation by FVB mice liver S9 fraction (in words)” value in data set [1] (5, 10 and 40 µM substrate, Sult single reaction) is listed as “not sulfated”. Besides, the “time stable in buffer” value in data set [2] is on record as 30 to 90 min.
For `O=c1cc(-c2cccc(O)c2)oc2ccccc12` [3’-HF, 3’-hydroxyflavone], the sulfation rate in data set [1] (setting [5]) is on record as 0.0312 ± 0.0095 nmol per min per mg of protein. The “time stable in buffer” value in data set [2] was 30 to 90 min.
The matching figures for `O=c1cc(-c2ccc(O)cc2)oc2ccccc12` [4’-HF, 4’-hydroxyflavone]: 0.0793 ± 0.0031 nmol per min per mg of protein and 30 to 90 min.
In the case of `O=c1cc(-c2ccccc2)oc2cc(O)cc(O)c12` [5,7-diHF, 5,7-dihydroxyflavone], in data set [3], the “glucuronidation rate, 5-O-G” value is listed as 0.00 ± 0.00 nmol per min per mg of protein and the “glucuronidation rate, 7-O-G” value is on record as 1.0763 ± 0.0399 nmol per min per mg of protein. In data set [1] (male, FVB, mouse, 5 µM, pH 7.4), the “formation rate of 7-O-sulfate” value was 0.0387 ± 0.0025 nmol per min per mg of protein.
On to `O=c1cc(-c2ccccc2)oc2cccc(O)c12` [5-HF, 5-hydroxyflavone], for which, in data set [1] (male, FVB, mouse, 10 µM, pH 7.4), the sulfation rate was 0.0524 ± 0.0019 nmol per min per mg of protein.
As a reminder, the half-life is the time needed for the level to fall by half in the phase considered. For the molecule `O=c1cc(-c2ccccc2)oc2cc(O)c(O)cc12` [6,7-diHF, 6,7-dihydroxyflavone], the half-life at 10 µM in the data set with Sult and Ugt was 21.2 ± 2.03 min; in the data set on Ugt it was 26.8 ± 1.32 min; in the data set on Sult, 244 ± 36.8 min.
Turning to `O=c1cc(-c2ccccc2)oc2ccc(O)cc12` [6-HF, 6-hydroxyflavone], in data set [1] (setting [5]), the sulfation rate is 0.0211 ± 0.0002 nmol per min per mg of protein. The “time stable in buffer” value in data set [2] is on record as 30 to 90 min.
Turning to `O=c1cc(-c2ccccc2)oc2cc(O)ccc12` [7-HF, 7-hydroxyflavone], the sulfation rate in data set [1] (setting [5]) is recorded as 0.0998 ± 0.0061 nmol per min per mg of protein. Besides, the “sulfation by SULTs (in words)” value in data set [4] was “sulfated”. The “time stable in buffer” value in data set [2] fell in the range of 30 to 90 min.
